Article PMC6332508, “A Promising PET Tracer for Imaging of α7 Nicotinic Acetylcholine Receptors in the Brain: Design, Synthesis, and in Vivo Evaluation of a Dibenzothiophene-Based Radioligand” (Molecules, 2015)
“And” between values parts separate entries of the source, which are not always exact repeats. Identical values can stand only once.

Test system: α7 nAChR
Assay: Dynamic PET studies in piglets with kinetic modelling (2TCM)
Type: in vivo
Conditions: for BPND / Rate Constant K1 / Rate Constant k2 / Rate Constant k3 / Rate Constant k4 / VND: piglet brain, 240 min scan data
Procedure: One-tissue and two-tissue compartment models (1TCM and 2TCM) were evaluated for mathematical description of [^18F]10a time-activity curves (TACs) in pig brain regions (Figure 3) using metabolite-corrected arterial plasma input functions. The 2TCM was identified as the more appropriate model based on its smaller Akaike information criterion (AIC) value. The four rate constants K1, k2, k3, and k4 were fitted and the non-displaceable volume of distribution (VND = K1/k2) and the binding potential (BPND = k3/k4) as defined by Innis et al. were calculated for each region of interest (Table 3 and Table 4).
Six female animals were used in this study with anesthesia and surgery performed as described previously. In brief, the animals received initially a premedication with midazolam (1 mg∙kg^−1 i.m.) followed by induction of anesthesia with 3% isoflurane in 70% N2O/30% O2. All incision sites were infiltrated with 1% lidocaine, and the anesthesia was maintained with 1.5% isoflurane throughout the surgical procedure. A central venous catheter was introduced through the left external jugular vein and used for the administration of the radiotracer and drugs, and for volume substitution with heparinized (50 IE∙mL^−1) lactated Ringer’s solution (2 mL∙kg^−1∙h^−1). An endotracheal tube was inserted by tracheotomy for artificial ventilation (Servo Ventilator 900C, Siemens-Elema, Solna, Sweden) after immobilization with pancuronium bromide (0.2 mg∙kg^−1∙h^−1). The artificial ventilation was adjusted to obtain normoxia and normocapnia (Radiometer ABL 500, Copenhagen, Denmark). Polyurethane catheters (i.d., 0.5 mm) were advanced through the left and the right femoral arteries into the abdominal aorta to withdraw arterial blood samples for regular monitoring of blood gases and for radiotracer input function measurements and metabolite analyses. The body temperature was monitored by a rectal temperature probe and maintained at ~38 °C by a heating pad. After the surgical procedure has been completed, anesthesia was maintained with 0.5% isoflurane in 70% N2O/30% O2, and the animals were allowed to stabilize for 1 h before imaging procedure.
PET imaging was performed according to the protocol described recently. In brief, a clinical tomograph (ECAT Exact HR+; Siemens Healthcare GmbH, Erlangen, Germany) was used with animals lying prone with the head placed in a custom-made head holder. For attenuation and scatter correction, transmission scans were acquired using three rotating ^68Ge rod sources. The radiotracer was injected as an intravenous (i.v.) bolus (10 mL saline with 340–494 MBq [^18F]10a) by a syringe pump within 2 min followed by flushing with 10 mL heparinized saline (50 IE∙mL^−1). PET scanning started at the time of injection (0 min) and dynamic emission data were acquired for a total of 240 min. Three animals were investigated under baseline conditions, and another three under blocking conditions with administration of 3 mg∙kg^−1 i.v. of the α7 nAChR partial agonist NS6740 at 3 min before radiotracer injection followed by a continuous infusion throughout the scan (1 mg∙kg^−1∙h^−1).
Arterial blood was sampled using a peristaltic pump during the first 20 min of the scan followed by manual sampling at 25, 30, 40, 50, 60, 90, 120, 150, 180, 210, and 240 min after injection. Plasma was obtained by centrifugation (13,000 rpm, 2 min at 21 °C) and total radioactivity concentration was measured using a gamma-counter (1470 Wizard; PerkinElmer, Shelton, CT, USA) cross-calibrated to the PET scanner. In addition, arterial whole blood was sampled manually at 4, 16, 30, 60, and 120 min p.i. and plasma obtained for metabolite analyses to determine the fraction of non-metabolized [^18F]10a.
The plasma input function was corrected for the presence of radioactive metabolites by determination of the parent fraction as described previously. […]

[1] = Cerebellum, blocking (NS6740), n = 3
[2] = Colliculi, blocking (NS6740), n = 3
[3] = Frontal Cortex, baseline, n = 3
[4] = Frontal Cortex, blocking (NS6740), n = 3
[5] = Hippocampus, blocking (NS6740), n = 3
[6] = Midbrain, blocking (NS6740), n = 3
[7] = Occipital Cortex, baseline, n = 3

O=S1(=O)c2ccc([18F])cc2-c2ccc(N3CCN4CCC3CC4)cc21 [[^18F]10a]
increase of VND under blocking conditions (NS6740 vs baseline): up to 4 fold
time of peak concentrations of radioactivity in the brain (baseline, i.v., n = 3): 8–10 min p.i.
SUVmax (baseline, other brain regions): 1.9–2.1
SUVmax (baseline, thalamus, colliculi, and midbrain): > 2.2
BPND (Cerebellum, baseline, n = 3): 2.5 and 2.53 ± 0.57
Rate Constant K1 (Cerebellum, baseline, n = 3): 0.421 ± 0.048 mL·cm^−3·min^−1
Rate Constant k2 (Cerebellum, baseline, n = 3): 0.131 ± 0.052 min⁻¹
Rate Constant k3 (Cerebellum, baseline, n = 3): 0.067 ± 0.051 min⁻¹
Rate Constant k4 (Cerebellum, baseline, n = 3): 0.026 ± 0.020 min⁻¹
VND (Cerebellum, baseline, n = 3): 3.62 ± 1.47
BPND [1]: 0.71 ± 1.10
Rate Constant K1 [1]: 0.711 ± 0.148 mL·cm^−3·min^−1
Rate Constant k2 [1]: 0.076 ± 0.014 min⁻¹
Rate Constant k3 [1]: 0.016 ± 0.019 min⁻¹
Rate Constant k4 [1]: 0.011 ± 0.016 min⁻¹
VND [1]: 9.75 ± 3.57
BPND (Colliculi, baseline, n = 3): 2.68 ± 1.42
Rate Constant K1 (Colliculi, baseline, n = 3): 0.450 ± 0.072 mL·cm^−3·min^−1
Rate Constant k2 (Colliculi, baseline, n = 3): 0.134 ± 0.074 min⁻¹
Rate Constant k3 (Colliculi, baseline, n = 3): 0.070 ± 0.042 min⁻¹
Rate Constant k4 (Colliculi, baseline, n = 3): 0.027 ± 0.018 min⁻¹
VND (Colliculi, baseline, n = 3): 4.19 ± 2.37
BPND [2]: 0.73 ± 0.74
Rate Constant K1 [2]: 0.735 ± 0.182 mL·cm^−3·min^−1
Rate Constant k2 [2]: 0.066 ± 0.007 min⁻¹
Rate Constant k3 [2]: 0.011 ± 0.013 min⁻¹
Rate Constant k4 [2]: 0.007 ± 0.015 min⁻¹
VND [2]: 11.41 ± 3.90
BPND [3]: 4.22 ± 2.93
Rate Constant K1 [3]: 0.387 ± 0.059 mL·cm^−3·min^−1
Rate Constant k2 [3]: 0.182 ± 0.153 min⁻¹
Rate Constant k3 [3]: 0.142 ± 0.165 min⁻¹
Rate Constant k4 [3]: 0.027 ± 0.015 min⁻¹
VND [3]: 3.32 ± 2.06
BPND [4]: 0.86 ± 0.92
Rate Constant K1 [4]: 0.647 ± 0.117 mL·cm^−3·min^−1
Rate Constant k2 [4]: 0.055 ± 0.011 min⁻¹
Rate Constant k3 [4]: 0.014 ± 0.019 min⁻¹
Rate Constant k4 [4]: 0.010 ± 0.020 min⁻¹
VND [4]: 12.34 ± 4.27
BPND (Hippocampus, baseline, n = 3): 5.5 and 5.50 ± 1.01
Rate Constant K1 (Hippocampus, baseline, n = 3): 0.400 ± 0.023 mL·cm^−3·min^−1
Rate Constant k2 (Hippocampus, baseline, n = 3): 0.188 ± 0.083 min⁻¹
Rate Constant k3 (Hippocampus, baseline, n = 3): 0.145 ± 0.101 min⁻¹
Rate Constant k4 (Hippocampus, baseline, n = 3): 0.025 ± 0.013 min⁻¹
VND (Hippocampus, baseline, n = 3): 2.43 ± 0.96
BPND [5]: 0.84 ± 1.70
Rate Constant K1 [5]: 0.603 ± 0.118 mL·cm^−3·min^−1
Rate Constant k2 [5]: 0.063 ± 0.023 * min^−1
Rate Constant k3 [5]: 0.024 ± 0.030 min⁻¹
Rate Constant k4 [5]: 0.011 ± 0.015 min⁻¹
VND [5]: 10.81 ± 5.02
BPND (Midbrain, baseline, n = 3): 3.40 ± 1.73
Rate Constant K1 (Midbrain, baseline, n = 3): 0.436 ± 0.045 mL·cm^−3·min^−1
Rate Constant k2 (Midbrain, baseline, n = 3): 0.162 ± 0.117 min⁻¹
Rate Constant k3 (Midbrain, baseline, n = 3): 0.121 ± 0.132 min⁻¹
Rate Constant k4 (Midbrain, baseline, n = 3): 0.029 ± 0.022 min⁻¹
VND (Midbrain, baseline, n = 3): 4.04 ± 3.06
BPND [6]: 0.61 ± 0.77
Rate Constant K1 [6]: 0.685 ± 0.131 mL·cm^−3·min^−1
Rate Constant k2 [6]: 0.063 ± 0.010 min⁻¹
Rate Constant k3 [6]: 0.013 ± 0.014 min⁻¹
Rate Constant k4 [6]: 0.012 ± 0.018 min⁻¹
VND [6]: 11.17 ± 3.64
BPND [7]: 3.16 ± 1.11
Rate Constant K1 [7]: 0.395 ± 0.053 mL·cm^−3·min^−1
Rate Constant k2 [7]: 0.123 ± 0.063 min⁻¹
Rate Constant k3 [7]: 0.099 ± 0.087 min⁻¹
Rate Constant k4 [7]: 0.030 ± 0.023 min⁻¹
